The values that follow come from publication PMC9318694 (Molecules, 2022).

Assay [1] has as its target T1, D2R (Homo sapiens, UniProt P14416). Put plainly: HTRF KI determination of the selected ligands. The assay is classed as binding. To be noted: for Fold Difference in comparison to the determined KI of dopamine / Ki: Table 4; for Ki: n = 6. The protocol:
The selected compounds were investigated in vitro to determine their binding affinities (KI values) at D2R.
All the HTRF assays were performed using a Tecan Spark plate reader. The respective settings were specifically modified and optimized for the determination of D2R ligand-binding affinities. […] Fluorophores were excited at 320 nm. A Dichroic 510 mirror was used, while lag and integration times of 100 and 400 µs were applied, respectively. Flashes were set to 75. Electronic gain was automatically optimized, while the z-position was optimized based on the well with the highest expected signal. […] The first plate was used to determine the gain and the z-position. Subsequently, the determined values were set manually for the second plate to enable direct comparison between the different plates.
The cells were stored in liquid nitrogen until further use. […] Bromocriptine mesylate (50 mg; CAYM14598-50) was acquired from VWR. The assay was conducted according to the standard operation protocol (SOP) available from PerkinElmer/cisbio. The 96-well plates were incubated at room temperature for 2 h. The 96-well plates were read on a Tecan Spark plate reader (the settings are shown in Section 4.5). The respective concentrations of the dilution series were performed in triplicates. In total, KD determination was performed three times.
The materials described in 4.6 were also used during KI determination of the ligands selected after screening. […] KI was determined following the SOP available at PerkinElmer/cisbio. The 96-well plates were incubated at room temperature in the dark for 2 h. The 96-well plates were read on a Tecan Spark plate reader (the settings are shown in Section 4.5). In total, KI determination was performed twice.

Assay [2] has as its target T1, D2R. Briefly: HTRF competitive binding screening of virtual hits at 10 µM (normalized decrease in fluorescence). To be noted: for Normalized Decrease in Fluorescence ± SD: Table 3, 10 µM, n = 4, normalized to the control; for NDF (normalized decreased fluorescence) ± SD: Table S9, all selected virtual hits, n = 4, 10 µM. On the technique in general: In TR-FRET formats the signal depends on donor and acceptor labels being close together.

The target in assay [3] is T1, D2R. Conditions: cited from earlier work.
The mark [4] stands for this setting: Table S2, data set of inactives, radio-ligand binding (RLB) assays, ref ChEMBL, [71]-[92], read-out: KI.
[5] abbreviates: Table S1, data set of actives, radio-ligand binding assays, ref ChEMBL, [50]-[70], read-out: KI.

Read-outs that look alike come from different tables or passages of the source. Where only a bound is given, the exact number is not on record here.

Broadly, the Ki is a dissociation constant, usually derived from enzyme kinetics or from competition with a known ligand.

T1 sequence (P14416 whole entry): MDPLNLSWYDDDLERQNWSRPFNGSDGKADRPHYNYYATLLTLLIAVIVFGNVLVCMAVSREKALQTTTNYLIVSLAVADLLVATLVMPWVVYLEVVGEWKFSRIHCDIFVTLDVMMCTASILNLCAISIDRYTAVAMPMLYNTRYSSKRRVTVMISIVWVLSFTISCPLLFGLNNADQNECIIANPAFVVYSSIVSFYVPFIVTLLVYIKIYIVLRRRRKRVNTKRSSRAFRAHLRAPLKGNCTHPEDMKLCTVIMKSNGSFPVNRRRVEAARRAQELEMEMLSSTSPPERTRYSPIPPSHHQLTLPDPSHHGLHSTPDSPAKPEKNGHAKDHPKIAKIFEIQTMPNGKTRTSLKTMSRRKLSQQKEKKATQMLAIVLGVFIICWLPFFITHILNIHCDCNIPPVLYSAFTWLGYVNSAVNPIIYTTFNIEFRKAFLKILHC

With `O[C@H](CNCCNc1ccc(C(F)(F)F)cn1)CSc1ccc(F)cc1` [Compound 18], at D2R [1], the “activity (KI range in words)” value is listed as “micromolar”, the “Fold Difference in comparison to the determined KI of dopamine” value (from here on “Fold Difference in comparison”) was found to be 4.2 and the Ki came out at 2.63 µM. On D2R [2], the “Normalized Decrease in Fluorescence ± SD” value came out at 10.85 ± 4.93 and the “NDF (normalized decreased fluorescence) ± SD” value was found to be 10.85 ± 4.93.
For the molecule `CC(C)C[C@H]1C(=O)N2CCC[C@H]2[C@]2(O)O[C@](NC(=O)[C@@H]3C=C4c5cccc6[nH]c(Br)c(c56)C[C@H]4N(C)C3)(C(C)C)C(=O)N12` [Compound 2, Bromocriptine], on D2R [3], the Ki was 0.0009 µM. In addition, the “Normalized Decrease in Fluorescence ± SD” value at D2R [2] is on record as 39.10 ± 1.31.
With `CCN1CCC[C@H]1CNC(=O)c1cc(S(N)(=O)=O)ccc1OC` [Sulpiride, (S)-(−)-sulpiride], the “Normalized Decrease in Fluorescence ± SD” value on D2R [2] is recorded as 30.65 ± 6.79.
Take `C=CC1CN2CCC1CC2C(O)c1ccnc2ccc(O)cc12` (stereo not shown) [Compound 10]: on D2R [2], the “NDF (normalized decreased fluorescence) ± SD” value was 1.13 ± 0.37.
Turning to `CN1CCN(C2Cc3ccc(O)cc3Sc3ccc(Cl)cc32)CC1` (stereo not shown) [Compound 14], on D2R [1], the “activity (KI range in words)” value is given as “nanomolar”, the “Fold Difference in comparison” value is 2700 and the Ki was 0.004 µM. Besides, the “Normalized Decrease in Fluorescence ± SD” value at D2R [2] came out at 40.40 ± 1.39.
Turning to `NS(=O)(=O)c1ccc(CCNCc2ccc(-c3cc(Cl)ccc3Cl)o2)cc1` [Compound 15], on D2R [1], the “activity (KI range in words)” value is “micromolar”; the “Fold Difference in comparison” value came out at 2.6; the affinity, expressed as Ki, was 4.31 µM. At D2R [2], the “Normalized Decrease in Fluorescence ± SD” value turned out to be 3.99 ± 2.58 and the “NDF (normalized decreased fluorescence) ± SD” value is reported as 3.99 ± 2.58.
For the molecule `CC/N=C1/SC(CC(=O)Nc2ccccc2C(F)(F)F)C(=O)N1CC` (stereo not shown) [Compound 11], the “NDF (normalized decreased fluorescence) ± SD” value at D2R [2] turned out to be 0.84 ± 0.23.
As to `c1cnc(N2CCN(Cc3ccc4c(c3)OCO4)CC2)nc1` [Piribedil, piribedil], the “Normalized Decrease in Fluorescence ± SD” value at D2R [2] is reported as 9.21 ± 3.80.
Turning to SC144, the “NDF (normalized decreased fluorescence) ± SD” value on D2R [2] is listed as 1.02 ± 0.36.
The same measure, in the same setting: next, `CC1CC(C)CN(CCC(=O)Nc2ccc(F)c(F)c2)C1` (stereo not shown) [Compound 12]: 1.05 ± 0.50.
As for `COc1cccc(CCc2ccccc2OCCCN2CCN(c3ccc(F)cc3)CC2)c1` [SC106, 1-(4-fluorophenyl)-4-[3-[2-[2-(3-methoxyphenyl)ethyl]phenoxy]propyl]piperazine], the Ki on D2R [3] (setting [4]) was 655 µM.
In the case of `COc1cccc(CCc2ccccc2OCCN2CCN(c3ccccc3OC)CC2)c1` [SC120, 1-(2-methoxyphenyl)-4-[2-[2-[2-(3-methoxyphenyl)ethyl]phenoxy]ethyl]piperazine], the Ki on D2R [3] (setting [4]) is 427 µM.
Turning to `CCCN(CCN1CCN(c2cccc3ncccc23)CC1)[C@H]1CCc2nc(N)sc2C1` [SC55, (S)-N6-propyl-N6-(2-(4-(quinolin-5-yl)piperazin-1-yl)ethyl)-4,5,6,7-tetrahydrobenzo[d]thiazole-2,6-diamine], the Ki on D2R [3] (setting [5]) is 0.0577 µM.
Regarding `CN1CCc2cccc3c2[C@H]1Cc1ccc(O)c(O)c1-3` [Compound 1, Apomorphine], the “Normalized Decrease in Fluorescence ± SD” value at D2R [2] was 9.44 ± 5.97.
As for `C1=C(c2ccccc2)CCN(C[C@@H]2CCC=C(c3ccccc3)C2)C1` [SC32, (R)-4-phenyl-1-((2,3,4,5-tetrahydro-[1,1'-biphenyl]-3-yl)methyl)-1,2,3,6-tetrahydropyridine], the Ki at D2R [3] (read-out: KI) is 0.0084 µM.
Consider `COc1cccc(CCc2ccccc2OCCCCCN2CCc3ccccc3C2)c1` [SC124, 2-[5-[2-[2-(3-methoxyphenyl)ethyl]phenoxy]pentyl]-3,4-dihydro-1H-isoquinoline], for which, at D2R [3] (setting [4]), the inhibitory constant (Ki) was greater than 1000 µM.
Regarding `COc1cccc(CCc2ccccc2OCCN2CCN(c3cccc(C(F)(F)F)c3)CC2)c1` [SC104, 1-[2-[2-[2-(3-methoxyphenyl)ethyl]phenoxy]ethyl]-4-[3-(trifluoromethyl)phenyl]piperazine], the Ki at D2R [3] (setting [4]) was greater than 1000 µM.
As to `CCCNC1CCn2ncc(C(=O)OC)c2C1` (stereo not shown) [SC94, methyl 5-(propylamino)-4,5,6,7-tetrahydropyrazolo[1,5-a]pyridine-3-carboxylate], the Ki on D2R [3] (setting [4]) is greater than 100 µM.
Regarding `COc1cccc(CCc2ccccc2OCCCCCN2CCN(c3ccc(F)cc3)CC2)c1` [SC119, 1-(4-fluorophenyl)-4-[5-[2-[2-(3-methoxyphenyl)ethyl]phenoxy]pentyl]piperazine], on D2R [3] (setting [4]), the Ki is 847 µM.
Regarding `Cc1ccc(CNCC2(F)CCN(C(=O)c3cc(Br)cs3)CC2)nc1` [SC96, (4-bromothiophen-2-yl)-[4-fluoro-4-[[(5-methylpyridin-2-yl)methylamino]methyl]piperidin-1-yl]methanone], the Ki at D2R [3] (setting [4]) is 100 µM.
Turning to `COc1cc2c(cc1OC)CN(C=Nc1ccc3c(c1)C1SCCSC1C3)CC2` (stereo not shown) [SC63, N-(3,4a,9,9a-tetrahydro-2H-indeno[1,2-b][1,4]dithiin-6-yl)-1-(6,7-dimethoxy-3,4-dihydro-1H-isoquinolin-2-yl)methanimine], the Ki at D2R [3] (setting [4]) was greater than 100 µM.
In the case of `Oc1ccc2c(c1)O[C@@H](CNCc1cccc(I)c1)CC2` [SC21, (R)-2-(((3-iodobenzyl)amino)methyl)chroman-7-ol], on D2R [3] (setting [5]), the inhibition constant Ki was 0.00206 µM.
With `CCCn1c(=O)n2c3c(cccc31)C[C@@H](NC)C2` [SC40, (R)-5-(methylamino)-1-propyl-5,6-dihydro-4H-imidazo[4,5,1-ij]quinolin-2(1H)-one], the Ki on D2R [3] (setting [5]) is 0.0132 µM.
For the molecule `CN[C@@H]1Cc2cccc3c2n(c(=O)n3CCOCCOCCOCCOc2ccc3c(c2)NC(=O)CC3)C1` [SC48, (R)-5-(methylamino)-1-(2-(2-(2-(2-((2-oxo-1,2,3,4-tetrahydroquinolin-7-yl)oxy)ethoxy)ethoxy)ethoxy)ethyl)-5,6-dihydro-4H-imidazo[4,5,1-ij]quinolin-2(1H)-one], the Ki at D2R [3] (setting [5]) is 0.306 µM.
On to `C=CCN1C[C@H](C(=O)N(CCCN(C)C)C(=O)NCC)C[C@@H]2c3cccc4[nH]cc(c34)C[C@H]21` [Compound 3, Cabergoline], for which the Ki at D2R [3] (setting [5]) is 0.0007 µM.
Consider `Oc1ccc2c(c1)O[C@@H](CNCc1ccc(OCCCCF)cc1)CC2` [SC22, (R)-2-(((4-(4-fluorobutoxy)benzyl)amino)methyl)chroman-7-ol], for which the Ki on D2R [3] (setting [5]) is 0.0056 µM.
Regarding `O=c1ccc2c(N3CCCN(CCCCOc4ccn5nccc5c4)CC3)ccc(O)c2[nH]1` [SC46, 8-hydroxy-5-(4-(4-(pyrazolo[1,5-a]pyridin-5-yloxy)butyl)-1,4-diazepan-1-yl)quinolin-2(1H)-one], the Ki at D2R [3] (setting [5]) is 0.078 µM.
`COc1cccc(CCc2ccccc2OCCCCN2CCN(c3ccc(F)cc3)CC2)c1` [SC100, 1-(4-fluorophenyl)-4-[4-[2-[2-(3-methoxyphenyl)ethyl]phenoxy]butyl]piperazine]: the Ki on D2R [3] (setting [4]) was 1320 µM.
Take `O=C(CCCN1CC=C(n2c(=O)[nH]c3ccccc32)CC1)c1ccc(F)cc1` [Droperidol, droperidol]: the “Normalized Decrease in Fluorescence ± SD” value at D2R [2] was determined as 38.69 ± 2.56.
With `CCCN[C@@H]1Cc2cccc3c2n(c(=O)n3CCCCOCCCCc2ccccc2)C1` [SC42, (R)-1-(4-(4-phenylbutoxy)butyl)-5-(propylamino)-5,6-dihydro-4H-imidazo[4,5,1-ij]quinolin-2(1H)-one], the Ki at D2R [3] (setting [5]) is 0.0372 µM.
Regarding `COc1cc2c(cc1OC)CN(C=Nc1ccc3c(c1)C(O)CC3)CC2` (stereo not shown) [SC67, 6-[(6,7-dimethoxy-3,4-dihydro-1H-isoquinolin-2-yl)methylideneamino]-2,3-dihydro-1H-inden-1-ol], the Ki on D2R [3] (setting [4]) is greater than 300 µM.
As to `CCCN(CCN1CCN(c2ccc(-c3ccccc3)cc2)CC1)[C@H]1CCc2nc(N)sc2C1` [SC53, (S)-N6-(2-(4-([1,1'-biphenyl]-4-yl)piperazin-1-yl)ethyl)-N6-propyl-4,5,6,7-tetrahydrobenzo[d]thiazole-2,6-diamine], the Ki at D2R [3] (setting [5]) was 0.264 µM.
Turning to `Clc1cccc(N2CCN(CCCOc3ccc4scnc4c3)CC2)c1Cl` [SC8, 5-(3-(4-(2,3-dichlorophenyl)piperazin-1-yl)propoxy)benzo[d]thiazole], at D2R [3] (setting [5]), the Ki was 0.03 µM.
As to `CCCN(CCN1CCN(c2ccnc3ccccc23)CC1)[C@H]1CCc2nc(N)sc2C1` [SC57, (S)-N6-propyl-N6-(2-(4-(quinolin-4-yl)piperazin-1-yl)ethyl)-4,5,6,7-tetrahydrobenzo[d]thiazole-2,6-diamine], on D2R [3] (read-out: KI), the Ki was 0.109 µM.
Consider `CCCN[C@@H]1Cc2cccc3c2n(c(=O)n3CCC)C1` [SC41, (R)-1-propyl-5-(propylamino)-5,6-dihydro-4H-imidazo[4,5,1-ij]quinolin-2(1H)-one], for which the Ki at D2R [3] (setting [5]) is 0.00808 µM.
On to `COc1ccccc1N1CCN(CCCCCNC(=O)OC(C)(C)C)CC1` [SC31, tert-butyl (5-(4-(2-methoxyphenyl)piperazin-1-yl)pentyl)carbamate], for which the Ki at D2R [3] (setting [5]) is 0.012 µM.
Turning to `COc1ccccc1N1CCN(CCCCCNC(=O)c2sc3nc(OC)c(Cl)c(C)c3c2N)CC1` [SC27, 3-amino-5-chloro-6-methoxy-N-(5-(4-(2-methoxyphenyl)piperazin-1-yl)pentyl)-4-methylthieno[2,3-b]pyridine-2-carboxamide], at D2R [3] (setting [5]), the Ki is 0.0035 µM.
